{
  "source": "patent US8927227B2",
  "about": "“Method of measuring effects of components on cell reactive oxygen species production” (Colgate-Palmolive Company, priority 2008, dated 2015)",
  "tested_on": "Human histocytic lymphoma U937 cells",
  "assay": "Intracellular ROS fluorescence assay (DCF-DA / DHR123) in U937 cells exposed to H2O2 and LPS",
  "assay_type": "cell-based",
  "method": "Human histocytic lymphoma U937 cells (ATCC, Manassas, Va.) were initially cultured in RPMI-1640 media (ATCC, Manassas, Va.) containing 10% serum and 1% penicillin, and then transferred at a concentration of 2×10^5 cells/ml into media containing 1 ng/ml PMA for 48 hours at 37° C. The cells were starved overnight in serum-free culture media before exposure to dye.\nCells were washed with PBS buffer twice, and divided into two sets to be incubated with DCF-DA or DHR123 (Calibochem, La Jolla, Calif.) for 30 minutes at 30° C. Cells are washed with PBS twice to remove residual dye. Appropriate experimental controls are also maintained.\nCells are then divided into several groups, and various amounts of a 1% solution of α-tocopherol (Vitamin E), substance 1, or substance 2 is added to each of the groups, and incubated at 37° C. for 15 minutes. Cells then were washed twice with PBS to remove residual amounts of test compounds. ROS agents H2O2 and LPS then were added and incubated for different periods of time. Fluorescence of the cells then were read at excitation 485 nm and emission 530 nm for up to 5 hours.",
  "data": [
    {"compound": "Cc1c(C)c2c(c(C)c1O)CC[C@@](C)(CCC[C@H](C)CCC[C@H](C)CCCC(C)C)O2", "note": "[α-tocopherol]", "values": [
      {"measurement": "reduction of oxidative level", "setting": "2 ppm active, 2.5 mM hydrogen peroxide, FIG. 2", "value": "approximately 30%"},
      {"measurement": "capability in scavenging ROS or free radicals", "setting": "10 ppm and 100 ppm active compared with 2 ppm, 2.5 mM hydrogen peroxide, FIG. 2", "value": "did not show enhanced capability in scavenging ROS or free radicals"},
      {"measurement": "cell fluorescence versus cells incubated without test compound", "setting": "two hours of incubation, ROS at 2.5 mM and ROS stimulant, FIG. 1", "value": "cells incubated in the absence of a test compound but in the presence of the ROS at 2.5 mM and ROS stimulant fluoresce greater"}
    ]}
  ]
}
